In PubChem BioAssay (NCI):
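Abbreviation: GI50, concentration required for 50% inhibition of growth. Definition used: TGI = concentration required for complete inhibition of growth.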

What was measured:
Assay in all cases: growth of human tumour cells (NCI), 384-well format
CAKI-1 renal = tested on: CAKI-1 renal
MOLT-4 leukemia = tested on: MOLT-4 leukemia
NCI-H23 lung = tested on: NCI-H23 lung
COLO 205 colon = tested on: COLO 205 colon
KM12 colon = tested on: KM12 colon
MCF7 breast = tested on: MCF7 breast
TK-10 renal = tested on: TK-10 renal
OVCAR-4 ovarian = tested on: OVCAR-4 ovarian
UO-31 renal = tested on: UO-31 renal
HCC-2998 colon = tested on: HCC-2998 colon
T-47D breast = tested on: T-47D breast
SK-MEL-28 melanoma = tested on: SK-MEL-28 melanoma
SK-MEL-5 melanoma = tested on: SK-MEL-5 melanoma
DU-145 prostate = tested on: DU-145 prostate
HOP-92 NSCLC = tested on: HOP-92 NSCLC
A498 renal = tested on: A498 renal
RPMI-8226 leukemia = tested on: RPMI-8226 leukemia
NCI-H460 NSCLC = tested on: NCI-H460 NSCLC
A549 NSCLC = tested on: A549 NSCLC
IGROV1 ovarian = tested on: IGROV1 ovarian
SF-268 CNS = tested on: SF-268 CNS
U251 glioblastoma = tested on: U251 glioblastoma
OVCAR-8 ovarian = tested on: OVCAR-8 ovarian
MDA-MB-468 breast = tested on: MDA-MB-468 breast
M14 melanoma = tested on: M14 melanoma
SNB-75 CNS = tested on: SNB-75 CNS
786-0 renal = tested on: 786-0 renal
PC-3 prostate = tested on: PC-3 prostate
HT29 colon = tested on: HT29 colon
CCRF-CEM leukemia = tested on: CCRF-CEM leukemia
SNB-19 CNS = tested on: SNB-19 CNS
NCI/ADR-RES ovarian = tested on: NCI/ADR-RES ovarian
BT-549 breast = tested on: BT-549 breast
OVCAR-3 ovarian = tested on: OVCAR-3 ovarian
NCI-H522 lung = tested on: NCI-H522 lung
SF-295 CNS = tested on: SF-295 CNS
LOX IMVI melanoma = tested on: LOX IMVI melanoma
NCI-H226 lung = tested on: NCI-H226 lung
HOP-62 NSCLC = tested on: HOP-62 NSCLC
HL-60(TB) leukemia = tested on: HL-60(TB) leukemia
HS 578T breast = tested on: HS 578T breast
SF-539 CNS = tested on: SF-539 CNS
OVCAR-5 ovarian = tested on: OVCAR-5 ovarian
UACC-257 melanoma = tested on: UACC-257 melanoma
UACC-62 melanoma = tested on: UACC-62 melanoma
NCI-H322M lung = tested on: NCI-H322M lung
SN12C renal = tested on: SN12C renal
MDA-MB-435 melanoma = tested on: MDA-MB-435 melanoma
SW-620 colon = tested on: SW-620 colon
EKVX NSCLC = tested on: EKVX NSCLC
SK-OV-3 ovarian = tested on: SK-OV-3 ovarian
ACHN renal = tested on: ACHN renal
RXF 393 renal = tested on: RXF 393 renal
MALME-3M melanoma = tested on: MALME-3M melanoma
SR leukemia = tested on: SR leukemia
HCT-15 colon = tested on: HCT-15 colon
K-562 leukemia = tested on: K-562 leukemia
MDA-MB-231 breast = tested on: MDA-MB-231 breast

## O=C(O)CCC1CCC(c2cc(F)ccc2F)(S(=O)(=O)c2ccc(Cl)cc2)CC1 (stereo not drawn)
CAKI-1 renal
  GI50: > 100000 nM
  TGI: > 100000 nM
MOLT-4 leukemia
  GI50: 65000 nM
  TGI: > 100000 nM
NCI-H23 lung
  GI50: > 100000 nM
  TGI: > 100000 nM
COLO 205 colon
  GI50: > 100000 nM
  TGI: > 100000 nM
KM12 colon
  GI50: > 100000 nM
  TGI: > 100000 nM
MCF7 breast
  GI50: > 100000 nM
  TGI: > 100000 nM
TK-10 renal
  GI50: > 100000 nM
  TGI: > 100000 nM
OVCAR-4 ovarian
  GI50: 78800 nM
  TGI: > 100000 nM
UO-31 renal
  GI50: > 100000 nM
  TGI: > 100000 nM
HCC-2998 colon
  GI50: > 100000 nM
  TGI: > 100000 nM
T-47D breast
  GI50: 99600 nM
  TGI: > 100000 nM
SK-MEL-28 melanoma
  GI50: > 100000 nM
  TGI: > 100000 nM
SK-MEL-5 melanoma
  GI50: > 100000 nM
  TGI: > 100000 nM
DU-145 prostate
  GI50: > 100000 nM
  TGI: > 100000 nM
HOP-92 NSCLC
  GI50: > 100000 nM
  TGI: > 100000 nM
A498 renal
  GI50: > 100000 nM
  TGI: > 100000 nM
RPMI-8226 leukemia
  GI50: > 100000 nM
  TGI: > 100000 nM
NCI-H460 NSCLC
  GI50: > 100000 nM
  TGI: > 100000 nM
A549 NSCLC
  GI50: > 100000 nM
  TGI: > 100000 nM
IGROV1 ovarian
  GI50: > 100000 nM
  TGI: > 100000 nM
SF-268 CNS
  GI50: > 100000 nM
  TGI: > 100000 nM
U251 glioblastoma
  GI50: > 100000 nM
  TGI: > 100000 nM
OVCAR-8 ovarian
  GI50: > 100000 nM
  TGI: > 100000 nM
MDA-MB-468 breast
  GI50: 8100 nM
  TGI: 80400 nM
M14 melanoma
  GI50: > 100000 nM
  TGI: > 100000 nM
SNB-75 CNS
  GI50: > 100000 nM
  TGI: > 100000 nM
786-0 renal
  GI50: > 100000 nM
  TGI: > 100000 nM
PC-3 prostate
  GI50: > 100000 nM
  TGI: > 100000 nM
HT29 colon
  GI50: > 100000 nM
  TGI: > 100000 nM
CCRF-CEM leukemia
  GI50: 75800 nM
  TGI: > 100000 nM
SNB-19 CNS
  GI50: > 100000 nM
  TGI: > 100000 nM
NCI/ADR-RES ovarian
  GI50: > 100000 nM
  TGI: > 100000 nM
BT-549 breast
  GI50: > 100000 nM
  TGI: > 100000 nM
OVCAR-3 ovarian
  GI50: > 100000 nM
  TGI: > 100000 nM
NCI-H522 lung
  GI50: > 100000 nM
  TGI: > 100000 nM
SF-295 CNS
  GI50: > 100000 nM
  TGI: > 100000 nM
LOX IMVI melanoma
  GI50: > 100000 nM
  TGI: > 100000 nM
NCI-H226 lung
  GI50: > 100000 nM
  TGI: > 100000 nM
HOP-62 NSCLC
  GI50: > 100000 nM
  TGI: > 100000 nM
HL-60(TB) leukemia
  GI50: > 100000 nM
  TGI: > 100000 nM
HS 578T breast
  GI50: > 100000 nM
  TGI: > 100000 nM
SF-539 CNS
  GI50: > 100000 nM
  TGI: > 100000 nM
OVCAR-5 ovarian
  GI50: > 100000 nM
  TGI: > 100000 nM
UACC-257 melanoma
  GI50: > 100000 nM
  TGI: > 100000 nM
UACC-62 melanoma
  GI50: > 100000 nM
  TGI: > 100000 nM
NCI-H322M lung
  GI50: > 100000 nM
  TGI: > 100000 nM
SN12C renal
  GI50: > 100000 nM
  TGI: > 100000 nM
MDA-MB-435 melanoma
  GI50: 71900 nM
  TGI: > 100000 nM
SW-620 colon
  GI50: > 100000 nM
  TGI: > 100000 nM
EKVX NSCLC
  GI50: > 100000 nM
  TGI: > 100000 nM
SK-OV-3 ovarian
  GI50: > 100000 nM
  TGI: > 100000 nM
ACHN renal
  GI50: > 100000 nM
  TGI: > 100000 nM
RXF 393 renal
  GI50: > 100000 nM
  TGI: > 100000 nM
MALME-3M melanoma
  GI50: 62000 nM
  TGI: > 100000 nM
SR leukemia
  GI50: 24800 nM
  TGI: > 100000 nM
HCT-15 colon
  GI50: > 100000 nM
  TGI: > 100000 nM
K-562 leukemia
  GI50: > 100000 nM
  TGI: > 100000 nM
MDA-MB-231 breast
  GI50: > 100000 nM
  TGI: > 100000 nM

## CN1CCN(Cc2ccc(Nc3ncc(Cl)c(Nc4ccccc4S(=O)(=O)N(C)C)n3)cc2)CC1
MOLT-4 leukemia
  GI50: < 10 nM
NCI-H23 lung
  GI50: 98.2 nM
  TGI: 234 nM
COLO 205 colon
  GI50: 16.9 nM
  TGI: 128 nM
KM12 colon
  GI50: 16.5 nM
  TGI: 298 nM
MCF7 breast
  GI50: < 10 nM
  TGI: 1310 nM
TK-10 renal
  GI50: 393 nM
  TGI: 2880 nM
OVCAR-4 ovarian
  GI50: 299 nM
  TGI: 888 nM
UO-31 renal
  GI50: 144 nM
  TGI: 448 nM
HCC-2998 colon
  GI50: 32 nM
  TGI: 251 nM
SK-MEL-28 melanoma
  GI50: 133 nM
  TGI: 274 nM
SK-MEL-5 melanoma
  GI50: 29.2 nM
  TGI: 186 nM
DU-145 prostate
  GI50: 45.2 nM
  TGI: 15500 nM
A498 renal
  GI50: 136 nM
  TGI: 671 nM
RPMI-8226 leukemia
  GI50: < 10 nM
  TGI: 32.6 nM
NCI-H460 NSCLC
  GI50: < 10 nM
  TGI: 10.9 nM
A549 NSCLC
  GI50: < 10 nM
  TGI: 750 nM
IGROV1 ovarian
  GI50: 62.6 nM
  TGI: 21200 nM
SF-268 CNS
  GI50: 18.3 nM
  TGI: 78.8 nM
U251 glioblastoma
  GI50: 146 nM
  TGI: 920 nM
OVCAR-8 ovarian
  GI50: 134 nM
  TGI: 420 nM
MDA-MB-468 breast
  GI50: 41.9 nM
  TGI: 151 nM
M14 melanoma
  GI50: 98 nM
  TGI: 235 nM
SNB-75 CNS
  GI50: 200 nM
  TGI: 363 nM
786-0 renal
  GI50: 109 nM
  TGI: 1140 nM
CCRF-CEM leukemia
  GI50: < 10 nM
  TGI: 15.3 nM
SNB-19 CNS
  GI50: 224 nM
  TGI: > 100000 nM
NCI/ADR-RES ovarian
  GI50: 191 nM
  TGI: 481 nM
BT-549 breast
  GI50: 117 nM
  TGI: 257 nM
OVCAR-3 ovarian
  GI50: 52.7 nM
  TGI: 243 nM
NCI-H522 lung
  GI50: < 10 nM
  TGI: 170 nM
LOX IMVI melanoma
  GI50: 20.5 nM
  TGI: 201 nM
HOP-62 NSCLC
  GI50: 20.8 nM
  TGI: 73.6 nM
HL-60(TB) leukemia
  GI50: < 10 nM
  TGI: 17.3 nM
HS 578T breast
  GI50: 181 nM
  TGI: 356 nM
SF-539 CNS
  GI50: 18.1 nM
  TGI: 139 nM
OVCAR-5 ovarian
  GI50: 128 nM
  TGI: 605 nM
UACC-257 melanoma
  GI50: 111 nM
  TGI: 253 nM
UACC-62 melanoma
  GI50: < 10 nM
  TGI: 123 nM
NCI-H322M lung
  GI50: 129 nM
  TGI: 351 nM
SN12C renal
  GI50: 140 nM
  TGI: 358 nM
MDA-MB-435 melanoma
  GI50: 149 nM
  TGI: 441 nM
SW-620 colon
  GI50: 44.8 nM
  TGI: 306 nM
EKVX NSCLC
  GI50: 192 nM
  TGI: 478 nM
SK-OV-3 ovarian
  GI50: 280 nM
  TGI: > 100000 nM
RXF 393 renal
  GI50: 162 nM
  TGI: 307 nM
MALME-3M melanoma
  GI50: 116 nM
  TGI: 252 nM
HCT-15 colon
  GI50: 72.5 nM
  TGI: 371 nM
K-562 leukemia
  GI50: 16.5 nM
  TGI: 233 nM
MDA-MB-231 breast
  GI50: 167 nM
  TGI: 1130 nM
